Test results reported in PMC3968014, “Design and Synthesis of a Library of Lead-Like 2,4-Bisheterocyclic Substituted Thiophenes as Selective Dyrk/Clk Inhibitors” (PLoS ONE, 2014).

Columns and labels:
U2OS osteosarcoma cells = test: Caspase-3 Assay (Caspase-Glo 3/7); type: cell-based
Method: U2OS osteosarcoma cells were seeded in a 96 well flat bottom plate (15*10^3 cells/well). […] The induction of caspase-3/7 activity was measured using the Promega Caspase-Glo 3/7 assay system (Promega, LOT 0000054568). The resulting luciferase reaction signals that are proportional to the caspase induction were measured in a POLARstar plate reader (BMG Labtech, Offenburg, Germany). […] Values obtained for different compound concentrations were compared using the two-sided Student's t test; levels of significance thus obtained are indicated by asterisks.

DYRK3 = biological target: T1, DYRK3 (Homo sapiens, UniProt O43781); test: Selectivity panel DYRK3; type: biochemical; conditions: 5 µM inhibitor
T1 construct: purchased Life Technologies (Invitrogen SelectScreen); Dyrk1A, Dyrk2 and CK2α in-house or gifts

DYRK4 = biological target: T2, DYRK4 (Homo sapiens, UniProt Q9NR20); test: Selectivity panel DYRK4; type: biochemical; conditions: 5 µM inhibitor
T2 construct: purchased Life Technologies (Invitrogen SelectScreen); Dyrk1A, Dyrk2 and CK2α in-house or gifts
T2 sequence (Q9NR20 whole entry): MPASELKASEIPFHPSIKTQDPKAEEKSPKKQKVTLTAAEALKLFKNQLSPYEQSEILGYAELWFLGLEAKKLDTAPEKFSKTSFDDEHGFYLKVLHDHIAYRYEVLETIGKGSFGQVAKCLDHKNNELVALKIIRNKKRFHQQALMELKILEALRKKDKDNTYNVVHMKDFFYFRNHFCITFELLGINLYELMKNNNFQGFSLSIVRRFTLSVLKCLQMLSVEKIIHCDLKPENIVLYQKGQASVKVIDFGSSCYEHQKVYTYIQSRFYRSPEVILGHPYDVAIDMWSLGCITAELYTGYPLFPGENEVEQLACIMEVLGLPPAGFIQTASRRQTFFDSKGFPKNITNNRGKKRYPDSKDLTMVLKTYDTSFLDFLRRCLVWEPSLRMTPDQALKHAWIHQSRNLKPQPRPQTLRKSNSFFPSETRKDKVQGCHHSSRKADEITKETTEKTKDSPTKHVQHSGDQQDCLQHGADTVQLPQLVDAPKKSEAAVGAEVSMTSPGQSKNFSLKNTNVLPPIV

CLK4 = biological target: T3, CLK4 (Homo sapiens, UniProt Q9HAZ1); test: Selectivity panel CLK4; type: biochemical; conditions: 5 µM inhibitor
T3 construct: purchased Life Technologies (Invitrogen SelectScreen); Dyrk1A, Dyrk2 and CK2α in-house or gifts

MAPK1 (ERK2) = biological target: T4, MAPK1 (ERK2) (Homo sapiens, UniProt P28482); test: Selectivity panel MAPK1; type: biochemical; conditions: 5 µM inhibitor
T4 construct: purchased Life Technologies (Invitrogen SelectScreen); Dyrk1A, Dyrk2 and CK2α in-house or gifts
T4 sequence (P28482 whole entry): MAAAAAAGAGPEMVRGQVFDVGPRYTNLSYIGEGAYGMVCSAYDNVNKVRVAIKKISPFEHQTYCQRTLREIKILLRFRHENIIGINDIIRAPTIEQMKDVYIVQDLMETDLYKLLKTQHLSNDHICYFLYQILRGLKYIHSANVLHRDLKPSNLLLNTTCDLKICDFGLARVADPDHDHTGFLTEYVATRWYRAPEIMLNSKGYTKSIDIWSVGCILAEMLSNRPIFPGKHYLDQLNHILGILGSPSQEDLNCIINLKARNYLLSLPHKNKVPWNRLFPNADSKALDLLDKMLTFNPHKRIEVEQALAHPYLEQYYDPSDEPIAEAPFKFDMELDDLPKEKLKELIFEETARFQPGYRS

MAPK10 (JNK3) = biological target: T5, MAPK10 (JNK3) (Homo sapiens, UniProt P53779); test: Selectivity panel MAPK10; type: biochemical; conditions: 5 µM inhibitor
T5 construct: purchased Life Technologies (Invitrogen SelectScreen); Dyrk1A, Dyrk2 and CK2α in-house or gifts

MAPK12 (p38 gamma, ERK3) = biological target: T6, MAPK12 (p38 gamma, ERK3) (Homo sapiens, UniProt P53778); test: Selectivity panel MAPK12; type: biochemical; conditions: 5 µM inhibitor
T6 construct: purchased Life Technologies (Invitrogen SelectScreen); Dyrk1A, Dyrk2 and CK2α in-house or gifts

MAPK8 (JNK1) = biological target: T7, MAPK8 (JNK1) (Homo sapiens, UniProt P45983); test: Selectivity panel MAPK8; type: biochemical; conditions: 5 µM inhibitor
T7 construct: purchased Life Technologies (Invitrogen SelectScreen); Dyrk1A, Dyrk2 and CK2α in-house or gifts

MAPK9 (JNK2) = biological target: T8, MAPK9 (JNK2) (Homo sapiens, UniProt P45984); test: Selectivity panel MAPK9; type: biochemical; conditions: 5 µM inhibitor
T8 construct: purchased Life Technologies (Invitrogen SelectScreen); Dyrk1A, Dyrk2 and CK2α in-house or gifts

STK23 (MSSK1) = biological target: T9, STK23 (MSSK1) (Homo sapiens, UniProt Q9UPE1); test: Selectivity panel STK23; type: biochemical; conditions: 5 µM inhibitor
T9 construct: purchased Life Technologies (Invitrogen SelectScreen); Dyrk1A, Dyrk2 and CK2α in-house or gifts

MAP3K14 (NIK) = biological target: T10, MAP3K14 (NIK) (Homo sapiens, UniProt Q99558); test: Selectivity panel MAP3K14; type: biochemical; conditions: 5 µM inhibitor
T10 construct: purchased Life Technologies (Invitrogen SelectScreen); Dyrk1A, Dyrk2 and CK2α in-house or gifts

MAP2K1 (MEK1) = biological target: T11, MAP2K1 (MEK1) (Homo sapiens, UniProt Q02750); test: Selectivity panel MAP2K1; type: biochemical; conditions: 5 µM inhibitor
T11 construct: purchased Life Technologies (Invitrogen SelectScreen); Dyrk1A, Dyrk2 and CK2α in-house or gifts
T11 sequence (Q02750 whole entry): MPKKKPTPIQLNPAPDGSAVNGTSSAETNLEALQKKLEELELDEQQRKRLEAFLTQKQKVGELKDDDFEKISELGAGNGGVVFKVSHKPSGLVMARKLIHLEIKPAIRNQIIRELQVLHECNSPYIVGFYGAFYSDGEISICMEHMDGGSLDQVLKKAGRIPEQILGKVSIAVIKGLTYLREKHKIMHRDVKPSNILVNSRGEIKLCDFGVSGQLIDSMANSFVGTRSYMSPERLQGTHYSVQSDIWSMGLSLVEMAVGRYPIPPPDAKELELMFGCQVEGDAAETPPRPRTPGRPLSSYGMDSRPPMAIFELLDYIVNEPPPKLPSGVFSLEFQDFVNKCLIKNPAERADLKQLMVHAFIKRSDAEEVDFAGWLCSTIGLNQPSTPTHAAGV

MINK1 = biological target: T12, MINK1 (Homo sapiens, UniProt Q8N4C8); test: Selectivity panel MINK1; type: biochemical; conditions: 5 µM inhibitor
T12 construct: purchased Life Technologies (Invitrogen SelectScreen); Dyrk1A, Dyrk2 and CK2α in-house or gifts

[1] = biological target: T13, (Homo sapiens, UniProt Q9UEW8); test: Selectivity panel PASK (STLK3); type: biochemical; conditions: 5 µM inhibitor; listed under STE
T13 construct: purchased Life Technologies (Invitrogen SelectScreen); Dyrk1A, Dyrk2 and CK2α in-house or gifts

SGK (SGK1) = biological target: T14, SGK (SGK1) (Homo sapiens, UniProt O00141); test: Selectivity panel SGK; type: biochemical; conditions: 5 µM inhibitor
T14 construct: purchased Life Technologies (Invitrogen SelectScreen); Dyrk1A, Dyrk2 and CK2α in-house or gifts

PRKACA (PKA) = biological target: T15, PRKACA (PKA) (Homo sapiens, UniProt P17612); test: Selectivity panel PRKACA; type: biochemical; conditions: 5 µM inhibitor
T15 construct: purchased Life Technologies (Invitrogen SelectScreen); Dyrk1A, Dyrk2 and CK2α in-house or gifts

PRKCZ (PKC zeta) = biological target: T16, PRKCZ (PKC zeta) (Homo sapiens, UniProt Q05513); test: Selectivity panel PRKCZ; type: biochemical; conditions: 5 µM inhibitor
T16 construct: purchased Life Technologies (Invitrogen SelectScreen); Dyrk1A, Dyrk2 and CK2α in-house or gifts

PDK1 = biological target: T17, PDK1 (Homo sapiens, UniProt O15530); test: Selectivity panel PDK1; type: biochemical; conditions: 5 µM inhibitor
T17 construct: purchased Life Technologies (Invitrogen SelectScreen); Dyrk1A, Dyrk2 and CK2α in-house or gifts

MARK1 (MARK) = biological target: T18, MARK1 (MARK) (Homo sapiens, UniProt Q9P0L2); test: Selectivity panel MARK1; type: biochemical; conditions: 5 µM inhibitor
T18 construct: purchased Life Technologies (Invitrogen SelectScreen); Dyrk1A, Dyrk2 and CK2α in-house or gifts

CHEK1 (CHK1) = biological target: T19, CHEK1 (CHK1) (Homo sapiens, UniProt O14757); test: Selectivity panel CHEK1; type: biochemical; conditions: 5 µM inhibitor
T19 construct: purchased Life Technologies (Invitrogen SelectScreen); Dyrk1A, Dyrk2 and CK2α in-house or gifts

AMPK A1/B1/G1 = biological target: T20, AMPK A1/B1/G1 (Homo sapiens, UniProt Q13131); test: Selectivity panel AMPK; type: biochemical; conditions: 5 µM inhibitor
T20 construct: purchased Life Technologies (Invitrogen SelectScreen); Dyrk1A, Dyrk2 and CK2α in-house or gifts

MKNK1 (MNK1) = biological target: T21, MKNK1 (MNK1) (Homo sapiens, UniProt Q9BUB5); test: Selectivity panel MKNK1; type: biochemical; conditions: 5 µM inhibitor
T21 construct: purchased Life Technologies (Invitrogen SelectScreen); Dyrk1A, Dyrk2 and CK2α in-house or gifts

STK22B (TSSK2) = biological target: T22, STK22B (TSSK2) (Homo sapiens, UniProt Q96PF2); test: Selectivity panel STK22B; type: biochemical; conditions: 5 µM inhibitor
T22 construct: purchased Life Technologies (Invitrogen SelectScreen); Dyrk1A, Dyrk2 and CK2α in-house or gifts

PRKD1 (PKC mu, PKD1) = biological target: T23, PRKD1 (PKC mu, PKD1) (Homo sapiens, UniProt Q15139); test: Selectivity panel PRKD1; type: biochemical; conditions: 5 µM inhibitor
T23 construct: purchased Life Technologies (Invitrogen SelectScreen); Dyrk1A, Dyrk2 and CK2α in-house or gifts

PASK = biological target: T24, PASK (Homo sapiens, UniProt Q96RG2); test: Selectivity panel PASK (CAMK); type: biochemical; conditions: 5 µM inhibitor; listed under CAMK
T24 construct: purchased Life Technologies (Invitrogen SelectScreen); Dyrk1A, Dyrk2 and CK2α in-house or gifts

WEE1 = biological target: T25, WEE1 (Homo sapiens, UniProt P30291); test: Selectivity panel WEE1; type: biochemical; conditions: 5 µM inhibitor
T25 construct: purchased Life Technologies (Invitrogen SelectScreen); Dyrk1A, Dyrk2 and CK2α in-house or gifts

IKBKB (IKK beta) = biological target: T26, IKBKB (IKK beta) (Homo sapiens, UniProt O14920); test: Selectivity panel IKBKB; type: biochemical; conditions: 5 µM inhibitor
T26 construct: purchased Life Technologies (Invitrogen SelectScreen); Dyrk1A, Dyrk2 and CK2α in-house or gifts
T26 sequence (O14920 whole entry): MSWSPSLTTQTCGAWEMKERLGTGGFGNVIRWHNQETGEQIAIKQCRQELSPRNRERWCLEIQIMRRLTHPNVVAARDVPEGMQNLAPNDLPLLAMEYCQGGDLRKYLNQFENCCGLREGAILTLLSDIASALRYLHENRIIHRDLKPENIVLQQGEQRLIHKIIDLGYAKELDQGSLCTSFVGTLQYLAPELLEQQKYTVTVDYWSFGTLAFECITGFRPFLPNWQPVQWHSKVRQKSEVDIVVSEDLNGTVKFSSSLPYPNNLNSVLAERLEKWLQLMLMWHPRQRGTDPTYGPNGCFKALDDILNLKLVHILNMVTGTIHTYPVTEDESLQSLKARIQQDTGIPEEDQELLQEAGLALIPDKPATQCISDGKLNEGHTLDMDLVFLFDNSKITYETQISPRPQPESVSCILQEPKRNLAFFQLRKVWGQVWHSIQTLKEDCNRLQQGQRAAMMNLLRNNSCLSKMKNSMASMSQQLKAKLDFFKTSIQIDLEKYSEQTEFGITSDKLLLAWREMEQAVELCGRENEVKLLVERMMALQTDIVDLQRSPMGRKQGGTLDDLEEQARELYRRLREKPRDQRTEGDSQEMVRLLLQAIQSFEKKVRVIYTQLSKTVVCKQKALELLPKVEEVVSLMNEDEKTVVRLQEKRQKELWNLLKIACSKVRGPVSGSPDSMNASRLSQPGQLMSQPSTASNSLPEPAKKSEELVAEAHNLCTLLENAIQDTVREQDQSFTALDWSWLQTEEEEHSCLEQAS

TBK1 = biological target: T27, TBK1 (Homo sapiens, UniProt Q9UHD2); test: Selectivity panel TBK1; type: biochemical; conditions: 5 µM inhibitor
T27 construct: purchased Life Technologies (Invitrogen SelectScreen); Dyrk1A, Dyrk2 and CK2α in-house or gifts

PIK3CA/PIK3R1 = biological target: T28, PIK3CA/PIK3R1 (Homo sapiens, UniProt P42336); test: Selectivity panel PIK3CA/PIK3R1; type: biochemical; conditions: 5 µM inhibitor
T28 construct: purchased Life Technologies (Invitrogen SelectScreen); Dyrk1A, Dyrk2 and CK2α in-house or gifts

ZAK = biological target: T29, ZAK (Homo sapiens, UniProt Q9NYL2); test: Selectivity panel ZAK; type: biochemical; conditions: 5 µM inhibitor
T29 construct: purchased Life Technologies (Invitrogen SelectScreen); Dyrk1A, Dyrk2 and CK2α in-house or gifts
T29 sequence (Q9NYL2 whole entry): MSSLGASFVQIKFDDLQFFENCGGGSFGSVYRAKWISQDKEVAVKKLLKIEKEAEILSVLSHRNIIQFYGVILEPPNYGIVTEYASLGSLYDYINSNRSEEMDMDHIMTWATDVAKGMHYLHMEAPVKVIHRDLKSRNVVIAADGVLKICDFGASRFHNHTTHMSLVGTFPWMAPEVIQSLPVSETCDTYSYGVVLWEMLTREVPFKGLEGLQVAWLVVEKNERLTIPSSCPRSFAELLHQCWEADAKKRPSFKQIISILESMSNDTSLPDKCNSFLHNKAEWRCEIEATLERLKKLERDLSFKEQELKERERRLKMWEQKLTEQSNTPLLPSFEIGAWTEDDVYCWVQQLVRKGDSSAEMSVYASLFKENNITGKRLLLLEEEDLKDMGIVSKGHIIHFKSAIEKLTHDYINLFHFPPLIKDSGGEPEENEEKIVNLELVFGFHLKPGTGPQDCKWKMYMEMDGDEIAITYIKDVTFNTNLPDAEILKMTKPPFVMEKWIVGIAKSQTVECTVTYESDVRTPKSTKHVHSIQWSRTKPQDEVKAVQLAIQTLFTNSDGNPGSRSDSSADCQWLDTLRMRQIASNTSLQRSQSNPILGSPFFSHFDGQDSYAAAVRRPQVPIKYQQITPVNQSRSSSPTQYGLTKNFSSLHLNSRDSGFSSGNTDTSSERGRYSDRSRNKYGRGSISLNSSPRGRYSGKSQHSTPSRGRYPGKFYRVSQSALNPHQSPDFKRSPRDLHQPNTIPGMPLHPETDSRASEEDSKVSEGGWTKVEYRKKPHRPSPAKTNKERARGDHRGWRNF

LIMK1 = biological target: T30, LIMK1 (Homo sapiens, UniProt P53667); test: Selectivity panel LIMK1; type: biochemical; conditions: 5 µM inhibitor
T30 construct: purchased Life Technologies (Invitrogen SelectScreen); Dyrk1A, Dyrk2 and CK2α in-house or gifts

IRAK4 = biological target: T31, IRAK4 (Homo sapiens, UniProt Q9NWZ3); test: Selectivity panel IRAK4; type: biochemical; conditions: 5 µM inhibitor
T31 construct: purchased Life Technologies (Invitrogen SelectScreen); Dyrk1A, Dyrk2 and CK2α in-house or gifts

KDR (VEGFR2) = biological target: T32, KDR (VEGFR2) (Homo sapiens, UniProt P35968); test: Selectivity panel KDR; type: biochemical; conditions: 5 µM inhibitor
T32 construct: purchased Life Technologies (Invitrogen SelectScreen); Dyrk1A, Dyrk2 and CK2α in-house or gifts

RET = biological target: T33, RET (Homo sapiens, UniProt P07949); test: Selectivity panel RET; type: biochemical; conditions: 5 µM inhibitor
T33 construct: purchased Life Technologies (Invitrogen SelectScreen); Dyrk1A, Dyrk2 and CK2α in-house or gifts
T33 sequence (P07949 29-1114): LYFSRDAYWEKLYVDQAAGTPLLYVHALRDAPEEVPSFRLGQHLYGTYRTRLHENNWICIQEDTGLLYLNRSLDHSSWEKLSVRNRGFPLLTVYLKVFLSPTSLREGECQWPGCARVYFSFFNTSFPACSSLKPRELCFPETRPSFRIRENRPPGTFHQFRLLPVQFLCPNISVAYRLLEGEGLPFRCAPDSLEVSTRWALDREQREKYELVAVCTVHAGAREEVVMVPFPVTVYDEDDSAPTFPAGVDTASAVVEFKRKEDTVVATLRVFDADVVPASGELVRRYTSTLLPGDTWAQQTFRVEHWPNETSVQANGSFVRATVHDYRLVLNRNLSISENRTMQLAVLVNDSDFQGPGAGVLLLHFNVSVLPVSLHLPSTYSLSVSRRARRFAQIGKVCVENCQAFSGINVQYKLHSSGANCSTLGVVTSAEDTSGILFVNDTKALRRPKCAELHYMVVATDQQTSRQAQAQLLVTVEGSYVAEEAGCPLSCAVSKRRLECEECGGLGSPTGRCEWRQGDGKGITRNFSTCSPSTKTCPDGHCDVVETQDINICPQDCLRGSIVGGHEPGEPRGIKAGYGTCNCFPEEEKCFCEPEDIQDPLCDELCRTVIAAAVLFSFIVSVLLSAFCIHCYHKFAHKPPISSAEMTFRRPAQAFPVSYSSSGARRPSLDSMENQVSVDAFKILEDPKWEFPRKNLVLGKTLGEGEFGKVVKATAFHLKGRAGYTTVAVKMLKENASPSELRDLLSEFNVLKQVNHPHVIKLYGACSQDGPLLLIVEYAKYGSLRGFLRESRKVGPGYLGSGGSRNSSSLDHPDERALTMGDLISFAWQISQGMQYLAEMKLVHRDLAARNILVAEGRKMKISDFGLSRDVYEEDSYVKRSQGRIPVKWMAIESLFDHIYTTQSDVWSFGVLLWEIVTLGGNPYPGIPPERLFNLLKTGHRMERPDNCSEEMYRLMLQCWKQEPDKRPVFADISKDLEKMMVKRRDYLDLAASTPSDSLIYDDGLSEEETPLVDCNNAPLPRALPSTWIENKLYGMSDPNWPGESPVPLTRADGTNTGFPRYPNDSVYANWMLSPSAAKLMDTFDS

TNK2 (ACK) = biological target: T34, TNK2 (ACK) (Homo sapiens, UniProt Q07912); test: Selectivity panel TNK2; type: biochemical; conditions: 5 µM inhibitor
T34 construct: purchased Life Technologies (Invitrogen SelectScreen); Dyrk1A, Dyrk2 and CK2α in-house or gifts

ABL1 = biological target: T35, ABL1 (Homo sapiens, UniProt P00519); test: Selectivity panel ABL1; type: biochemical; conditions: 5 µM inhibitor
T35 construct: purchased Life Technologies (Invitrogen SelectScreen); Dyrk1A, Dyrk2 and CK2α in-house or gifts
T35 sequence (P00519 whole entry): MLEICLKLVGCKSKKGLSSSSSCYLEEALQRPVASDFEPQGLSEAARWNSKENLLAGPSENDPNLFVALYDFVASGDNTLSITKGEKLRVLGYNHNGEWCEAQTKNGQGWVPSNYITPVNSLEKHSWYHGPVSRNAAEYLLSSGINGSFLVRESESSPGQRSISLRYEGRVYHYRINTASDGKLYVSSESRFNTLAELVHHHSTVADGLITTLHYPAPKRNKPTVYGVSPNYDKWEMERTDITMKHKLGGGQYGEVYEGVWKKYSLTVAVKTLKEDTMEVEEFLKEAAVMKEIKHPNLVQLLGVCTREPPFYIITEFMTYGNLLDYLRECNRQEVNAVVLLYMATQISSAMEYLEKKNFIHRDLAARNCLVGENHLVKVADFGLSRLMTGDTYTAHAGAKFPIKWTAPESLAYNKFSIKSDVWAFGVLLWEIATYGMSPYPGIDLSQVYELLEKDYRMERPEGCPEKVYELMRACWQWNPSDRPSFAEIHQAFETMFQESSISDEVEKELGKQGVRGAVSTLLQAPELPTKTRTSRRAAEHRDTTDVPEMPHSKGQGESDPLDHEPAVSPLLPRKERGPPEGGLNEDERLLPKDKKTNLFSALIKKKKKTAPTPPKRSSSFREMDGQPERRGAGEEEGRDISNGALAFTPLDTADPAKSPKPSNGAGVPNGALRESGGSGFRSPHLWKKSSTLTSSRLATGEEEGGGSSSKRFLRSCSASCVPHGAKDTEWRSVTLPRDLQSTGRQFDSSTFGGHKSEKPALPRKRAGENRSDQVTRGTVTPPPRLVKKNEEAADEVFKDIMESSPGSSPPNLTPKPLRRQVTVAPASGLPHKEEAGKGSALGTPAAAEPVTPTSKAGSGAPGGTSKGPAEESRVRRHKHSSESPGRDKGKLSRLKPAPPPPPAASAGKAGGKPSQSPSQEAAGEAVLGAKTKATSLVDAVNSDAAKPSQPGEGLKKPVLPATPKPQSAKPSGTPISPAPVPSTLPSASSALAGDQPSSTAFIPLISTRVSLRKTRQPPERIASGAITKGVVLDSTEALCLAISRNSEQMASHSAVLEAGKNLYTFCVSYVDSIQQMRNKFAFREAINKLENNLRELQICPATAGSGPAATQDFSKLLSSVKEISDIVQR

AXL = biological target: T36, AXL (Homo sapiens, UniProt P30530); test: Selectivity panel AXL; type: biochemical; conditions: 5 µM inhibitor
T36 construct: purchased Life Technologies (Invitrogen SelectScreen); Dyrk1A, Dyrk2 and CK2α in-house or gifts

IGF1R = biological target: T37, IGF1R (Homo sapiens, UniProt P08069); test: Selectivity panel IGF1R; type: biochemical; conditions: 5 µM inhibitor
T37 construct: purchased Life Technologies (Invitrogen SelectScreen); Dyrk1A, Dyrk2 and CK2α in-house or gifts

MET (cMet) = biological target: T38, MET (cMet) (Homo sapiens, UniProt P08581); test: Selectivity panel MET; type: biochemical; conditions: 5 µM inhibitor
T38 construct: purchased Life Technologies (Invitrogen SelectScreen); Dyrk1A, Dyrk2 and CK2α in-house or gifts

c1cncc(-c2cc(-c3cncs3)cs2)c1 [Compound 29, 3-[4-(1,3-thiazol-5-yl)thiophen-2-yl]pyridine]
concentration at which induction of caspase-3/7 was already observed (U2OS osteosarcoma cells; U2OS cells, not statistically significant at this concentration): 0.5 µM
caspase-3/7 activity (U2OS osteosarcoma cells; starved U2OS cells, 48 hours, vs DMSO control): clear increase
inhibition at 5 µM (DYRK3): 66%
inhibition at 5 µM (DYRK4): 13%
inhibition at 5 µM (CLK4): 105%
inhibition at 5 µM (MAPK1 (ERK2)): -6%
inhibition at 5 µM (MAPK10 (JNK3)): 4%
inhibition at 5 µM (MAPK12 (p38 gamma, ERK3)): -2%
inhibition at 5 µM (MAPK8 (JNK1)): -1%
inhibition at 5 µM (MAPK9 (JNK2)): -6%
inhibition at 5 µM (STK23 (MSSK1)): 2%
inhibition at 5 µM (MAP3K14 (NIK)): 2%
inhibition at 5 µM (MAP2K1 (MEK1)): 1%
inhibition at 5 µM (MINK1): 36%
inhibition at 5 µM [1]: 23%
inhibition at 5 µM (SGK (SGK1)): 20%
inhibition at 5 µM (PRKACA (PKA)): 1%
inhibition at 5 µM (PRKCZ (PKC zeta)): -23%
inhibition at 5 µM (PDK1): -10%
inhibition at 5 µM (MARK1 (MARK)): 0%
inhibition at 5 µM (CHEK1 (CHK1)): 3%
inhibition at 5 µM (AMPK A1/B1/G1): -9%
inhibition at 5 µM (MKNK1 (MNK1)): 83%
inhibition at 5 µM (STK22B (TSSK2)): -2%
inhibition at 5 µM (PRKD1 (PKC mu, PKD1)): -1%
inhibition at 5 µM (PASK): 23%
inhibition at 5 µM (WEE1): 17%
inhibition at 5 µM (IKBKB (IKK beta)): 8%
inhibition at 5 µM (TBK1): 3%
inhibition at 5 µM (PIK3CA/PIK3R1): 21%
inhibition at 5 µM (ZAK): 11%
inhibition at 5 µM (LIMK1): 11%
inhibition at 5 µM (IRAK4): -7%
inhibition at 5 µM (KDR (VEGFR2)): 6%
inhibition at 5 µM (RET): -1%
inhibition at 5 µM (TNK2 (ACK)): 8%
inhibition at 5 µM (ABL1): 2%
inhibition at 5 µM (AXL): -2%
inhibition at 5 µM (IGF1R): 1%
inhibition at 5 µM (MET (cMet)): 1%
